{"source": "patent US20220243177A1", "about": "“METHODS OF CULTURING QUIESCENT HEMATOPOIETIC STEM CELLS AND TREATMENT METHODS” (priority 2019, published 2022)", "type_in_all_cases": "cell-based, mouse", "key": {"[1]": {"test_system": "MMP-low and MMP-high HSCs", "assay": "Autophagic vacuole formation / lysosomal localization of mitochondria (confocal immunofluorescence)", "description": "Immunofluorescence Staining, Imaging, and Analysis—Super Resolution Confocal Microscopy: Images were acquired with a Zeiss LSM 880 confocal microscope equipped with Airyscan Super Resolution Imaging module, using a 100×/1.46 Alpha Plan Apochromat objective lens (Zeiss MicroImaging, Jena, Germany) with “optimal” (Nyquist) XY scaling. Z stacks through the entire cell were acquired at an […] (at least 20 optical sections) using a pixel dwell time of >50 microseconds and field dimensions of […] (20 MMP-low and 20 MMP-high HSCs analyzed). This was followed by Airyscan image processing (set at auto but rarely over 6.2) and analyses using ZEN image acquisition and processing software (ZEN blue/black). Maximum intensity projections shown in the figures were also obtained using ZEN Blue software.\nLysosomal Localization of Mitochondria. FACS-sorted MMP-low and MMP-high HSCs (LSKCD150^+CD48^-MMP-low/-high) were treated with DMSO control or leupeptin […] for 4 hours. HSCs were then fixed and imaged for TOM20 (mitochondria) and LAMP1 (lysosomes).\nAutophagic Vacuole Formation. Accumulation of autophagy substrates, Translocase of outer membrane 20 (TOM20) or Map11c3a (LC3), was determined in the presence of amino acid-containing (DMSO) or -starved amino acid-depleted media, v-ATPase inhibitor concanamycin A (ConA 40nM), inhibitor of autophagosome-autolysosome fusion chloroquine (CQ, […]), or protease inhibitor, leupeptin […] following guidelines outlined for study of autophagy (Klionsky et al., “Guidelines for the Use and Interpretation of Assays for Monitoring Autophagy (3rd Edition),” Autophagy 12(1): 1-222 (2016) and Martinez-Lopez et al., “Autophagy Proteins Regulate ERK Phosphorylation,” Nat. Commun. 4: 2799 (2013), which are hereby incorporated by reference in their entirety). In brief, FACS-sorted\nMMP-low and MMP- high HSCs were cultured in the presence or absence of indicated inhibitors for 4, 5, or 18 hours following which cells were subjected to immunofluorescence assays for TOM20, LC3 and/or LAMP1 or LAMP2 as described above. Analyses were performed to quantify the turnover of indicated protein in lysosomes by evaluating the accumulation of TOM20 or LC3 in the presence versus absence of an inhibitor. TOM20 and LC3 flux were determined by subtracting the colocalized value of inhibitor-untreated TOM20 or LC3 with LAMP1 from corresponding inhibitor-treated values. Images were captured using a Zeiss LSM880 Airyscan confocal microscope using 100 X objectives (Leica), and percentage colocalization was calculated using the JACoP plugin (NIH ImageJ).\nMitochondrial and Lysosome Morphology: Freshly isolated HSCs were analyzed for mitochondrial morphology. Each individual HSC (150 total) was analyzed by using Arivis Vision 4D software and classified as either fragmented or not fragmented in accordance with number of surfaces. Cells that fulfilled the definition of ‘fragmented’ contained 3 or more individual mitochondrial surfaces (Kask et al., “Fluorescence-intensity Distribution Analysis and Its Application in Biomolecular Detection Technology,” Proc. Natl. Acad. Sci. USA 96(24): 13756-13761 (1999), which is hereby incorporated by reference in its entirety). Lysosomes' fluorescence intensity or area profiling was calculated using ImageJ software enabling the detection of fluorescently labeled […] boundaries (lysosomal marker LAMP1), as reflected by sharp increases or decreases in fluorescence intensity. Channels displaying fluorescence for either mitochondria or lysosomes were thresholded with the IsoData option to delimit the boundaries of mitochondrial networks and lysosome morphology. The resulting outlines were measured using the analyzed particles option to determine the size of distinct particles representing mitochondrial networks or lysosomes. More than 50 cells/condition/experiment were analyzed for lysosomes. […]"}, "[2]": {"test_system": "MMP-low and MMP-high HSCs", "assay": "Lysosome acidity (LysoTracker green, LysoSensor blue)", "conditions": "ConA 40 nM, 5 hours", "method": "To test lysosome acidity in MMP-low and MMP-high HSCs, FACS-sorted MMP-low and MMP-high HSCs were incubated in Stem-Span media with SCF (10 ng/mL) and TPO (20 ng/mL) or amino acid free medium (starvation) containing ConA (40 nM) or DMSO control for 5 hr; and then cells were incubated with […] Lysotracker green (LTR) or 1mM Lysosensor Blue diluted in above medium for 30 min (37° C., 5% CO2). Cells were rapidly washed with warm PBS (37° C.) three times, mounted and images were captured using a Zeiss LSM880 confocal microscope using a 40× objective (N.A. 1.4)."}, "[3]": {"test_system": "bone marrow lineage-negative cells", "assay": "Lineage negative bone marrow cell culture, HSC frequency and MMP", "conditions": "ConA 100 nM", "method": "For measuring MMP and proliferation, lineage negative bone marrow (BM) cells were enriched with the EasySep Mouse hemato- poietic progenitor kit. Lineage negative (1 3 106) cells (isolated separately from four mice) were seeded onto 6 well plates in Stem-Span medium containing SCF (100 ng/ml) and TPO (20 ng/ml). Cells were treated with ConA (100nM) or the DMSO control and analyzed at 0, 6, 12 and 24 hour-time points by flow cytometry for HSC (LSKCD150+CD48−) frequencies or MMP-low and MMP- high HSCs frequencies or MMP (TMRE)."}}}
{"smiles": "C/C=C/[C@H]1O[C@@](O)([C@@H](C)[C@H](O)[C@H](C)[C@H]2OC(=O)/C(OC)=C/C(C)=C/[C@@H](C)[C@@H](O)[C@@H](CC)[C@@H](O)[C@H](C)C/C(C)=C/C=C/[C@@H]2OC)C[C@@H](O[C@H]2C[C@@H](O)[C@H](OC(N)=O)[C@@H](C)O2)[C@@H]1C", "note": "[ConA, concanamycin A]", "values": [{"measurement": "fold increase of enlarged lysosomes, MMP-high HSCs", "setting": "[1]; 5-hour ConA treatment, 40 nM", "result": 35}, {"measurement": "fold increase of enlarged lysosomes, MMP-low HSCs", "setting": "[1]; 5-hour ConA treatment, 40 nM", "result": 32}, {"measurement": "increase of lysosomal localization of TOM20, MMP-high HSCs", "setting": "[1]; ConA 40 nM", "result": "~3", "unit": "fold"}, {"measurement": "increase of lysosomal localization of TOM20, MMP-low HSCs", "setting": "[1]; ConA 40 nM", "result": "~1.3", "unit": "fold"}, {"measurement": "mitochondrial fragmentation", "setting": "[1]; ConA 40 nM", "result": "enhanced mitochondrial fragmentation"}, {"measurement": "increase in LC3-positive puncta, MMP-high HSCs", "setting": "[1]; ConA 40 nM, 18 hours", "result": 3, "unit": "fold"}, {"measurement": "increase in LC3-positive puncta, MMP-low HSCs", "setting": "[1]; ConA 40 nM, 18 hours", "result": 1.33, "unit": "fold"}, {"measurement": "autolysosomal degradation (colocalization of LAMP1 with LC3)", "setting": "[1]; ConA 40 nM, leupeptin 100 mM, chloroquine 40 mM, 18 hours, MMP-low and MMP-high HSCs", "result": "dramatically prevented autolysosomal degradation"}, {"measurement": "lysosomal acidity", "setting": "[2]", "result": "reduced"}, {"measurement": "MMP in recovered cells", "setting": "[3]; 12-24 hours", "result": "relative decrease of MMP"}, {"measurement": "frequency of HSCs recovered from 24-hour in vitro culture", "setting": "[3]; 24 hours", "result": "improved frequency"}, {"measurement": "retention of the MMP-low HSC fraction", "setting": "[3]; twenty-four-hour", "result": "greater retention"}]}
